# Reference: US20260027073A1, “USE OF SMALL-MOLECULE COMPOUND HAVING NAPHTHYLAMINE STRUCTURE” (HANGZHOU PHECDAMED CO., LTD., priority 2023, published 2026)
# Tested on: DSS-induced enteritis mice
# Assay: DSS-induced inflammatory bowel disease
# Assay type: in vivo, C57BL/6J mice
# Method: Eight-week-old C57BL/6J male mice were randomly divided into […], of which, G1 blank control group (8 mice), G2 positive control group (intraperitoneal injection of infliximab 10 mg/kg, 8 mice), G3 group (intraperitoneal injection of small-molecule drug TJ01-013, 5 mg/kg, 12 mice), G4 group (intraperitoneal injection of small-molecule drug TJ01-013, 10 mg/kg, 12 mice) and G5 group (intraperitoneal injection of small-molecule drug TJ01-013, 10 mg/kg, 12 mice). The configuration method of intraperitoneal injection drug was 5% DMSO+30% PEG400+65% ddH2O, the small-molecule compound was first dissolved in 5% DMSO, and then 30% PEG400 and 65% H2O were added sequentially, after 2 weeks of acclimatization, 2% DSS solution was given as drinking water for 6 days, and then was replaced with normal drinking water. During the experiment, the mice were injected intraperitoneally with the corresponding concentration of small-molecule compound every day; and the mice were recorded daily for weight change, fecal shape and blood in stool. During the experiment, the fecal shape and blood in stool were scored, and the disease activity index was calculated on day 3th, day 6th, and day 8th.
# At the end of the experiment, after the mice were put to death with CO2, all the intestinal segments from the cecum to the anus were cut, photographed and measured for length.
# The middle about 1 cm intestinal segment was taken into the embedding box and immersed in 4% paraformaldehyde, fixed and immersed for 72 h to prepare pathological specimens for HE staining, and the histopathological results were scored; tissue embedding, sectioning and HE staining were performed as follows:
# The remaining intestinal segments were washed with pre-cooled saline using a 50 mL syringe, and after washing out the remaining liquid in the intestinal lumen, the tissues were cut into pieces with small scissors and mixed evenly, wrapped in tin foil and then rapidly frozen in liquid nitrogen, and all the operations were controlled to be completed within 10 minutes after the death of the mice. The tissues were lysed by Trizol, and RNA was extracted according to the instructions of Trizol; the obtained RNA was subjected to reverse transcription reaction with the Reverse Transcription Kit from ABI company; SYBR Green method was used to detect the inflammatory factors such as Cxcl1, G-CSF, IL6, IL-1β, S100A8, and TNF-α in the reversed transcription products, and the housekeeping gene Actin was used as an internal reference, and calculated and analyzed by 2-ΔΔCt method.
# [1] = vs model control group, FIG. 23
# [2] = vs model control group, FIG. 24
structure (smiles),measurement,setting,value
O=C(O)C[S+]([O-])c1cc(NS(=O)(=O)c2ccc(Br)cc2)c2ccccc2c1O (stereo not drawn) [I-1],Histopathological scores,FIG. 23,significantly reduced the pathological changes
same,weight loss of the mice,"intraperitoneal injection during DSS induction, FIG. 20",slowing down of the weight loss
same,disease activity index,"intraperitoneal injection during DSS induction, FIG. 21",reduction of the disease activity index
same,colorectal length,"vs model control group, FIG. 22",significantly greater
same,colorectal tissue morphology (HE staining),[1],more intact
same,inflammatory infiltration of colorectal tissue,[1],reduced
same,Cxcl1 expression level in colorectal tissue (q-PCR),[2],significantly reduced
same,G-CSF expression level in colorectal tissue (q-PCR),[2],significantly reduced
same,IL6 expression level in colorectal tissue (q-PCR),[2],significantly reduced
same,IL-1β expression level in colorectal tissue (q-PCR),[2],significantly reduced
same,S100A8 expression level in colorectal tissue (q-PCR),[2],significantly reduced
same,TNF-α expression level in colorectal tissue (q-PCR),[2],significantly reduced
